Measurements taken from US20040121965A1, “Method of treating resistant tumors” (Wyeth Holdings Corporation, priority 2002, published 2004).
Where two headings read alike, the source gives them in different places.

Assays:
[1] = test system: tumor cell lines; assay: cells; type: cell-based; settings: Five micromolar
Description: (§1) Cells lines with previously known mechanisms of resistance. […] Res. 8: 207-218,1996); KB-3-1 (parental derived from an epidermoid carcinoma), KB-8.5, KB-V1 (Akiyama S-I, Fojo A, Hanover J A, Pastan I, Gottesman M M. Isolation and genetic characterization of human KB cell lines resistant to multiple drugs. Somatic Cell Mol. Gen., 11: 117-126,1985; Shen D-W, Cardarelli C, Hwang J, Cornwell M, Richert N, Ishii S, Pastan I, Gottesman MM. […] J. Biol. Chem., 261: 7762-7770, 1986); and HL-60 (parental derived from human leukemia) and HL60/AR (McGrath T., Center M. S. Adriamycin resistance in HL60 cells in the absence of detectable P-glycoprotein. Biochem. Res. Commun., 145:1171-1176,1987); A549 and A549.EpoB40 (He L., Yang C.-P.H., Horwitz S. B. Mutations in p-tubulin map to domains involved in regulation of microtubule stability in epothilone-resistant cell lines. Molecular Cancer Therapeutics. 1: 3-10, 2001). HCT-15 human colon carcinoma and DLD-1 human colon carcinoma are obtained from American Tissue Culture Collection. The MX-1W carcinoma is a Wyeth variant orginally obtained as MX-1 breast carcinoma from the National Cancer Institute. Cell lines selected for resistance to Representative Example 129. KB-3-1 cells are selected for resistance to Example 129 by chronically exposing cells to increasing concentrations of Example 129.
(§2) 2.2. Cell Survival Assay: Standard Pharmacological Test Procedure. The concentration of candidate inhibitor required to inhibit 50% of cell growth (IC50) is done according to previously reported methods. […] Compounds are serially diluted into media as 2× stocks and 100 μl added to cells in duplicate. Compounds are incubated with cells for 3 days. At the end of the incubation period the sulforhodamine B (SRB) assay, which measures protein content as an assessment of cell survival, is performed as described previously (Skehan P, Storeng R, Scudiero D, Monks A, McMahon J, Vistica D, Warren J T, Bokesch H, Kenney S, Boyd MR. New calorimetric cytotoxicity assay for anticancer-drug screening. J Natl Cancer Inst 1990 Jul 4;82(13):1107-12) with some modification as follows. For KB-3-1 cells with 20% FCS, media is gently decanted and replaced with 200 μl of serum-free media mixed with cold 50% TCA for a final concentration of 10% TCA. The plates are incubated for 1 hr at 4° C., followed by washing 5 times in cold distilled water, then air dried overnight. The fixed cells are stained for 10 min with 80 μl of 0.04% SRB solution prepared in 1% glacial acetic acid. Stain is discarded and plates washed 5 times in 1% glacial acetic acid, then air-dried until completely dry. Stained cell product is dissolved in 150 μl of 10 mM Trizma Base and placed on a shaker for 20 minutes until fully dissolved. Absorbance is read on a Victor V multi-label plate reader (Perkin Elmer, Gaithersburg, Md.).

[2] = test system: KB-3-1; assay: Cell survival assay (SRB), KB-3-1; type: cell-based, human
Procedure, shortened: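 Step 1: add serial compound dilutions to cells in duplicate. Step 2: incubate 3 days. Step 3: fix in 10% TCA for 1 hr at 4 °C, stain with 0.04% SRB for 10 min, wash in 1% acetic acid, solubilise in 10 mM Trizma Base, measure absorbance and derive the 50%-growth-inhibition concentration.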

[3] = test system: Human Melanoma Carcinoma Lox; settings: staged LOX xenograft; at MTD ('<': MTD not achieved); days 11-15
Description: 2.4. Growth of Tumors in Nude Mice. […] In these experiments, xenografts are implanted subcutaneously into the flanks of nude mice. […] Relative tumor mass compared to controls are assessed during the 21-day post-staging period.
Groups of 5 female nu/nu mice are injected with 1.5×10^6 KB-3-1 (A) or Lox cells (B). […] Relative tumor growth is determined during the experiment and % T/C calculated. Statistical analyses are Student's t-test of treated time points vs. vehicle (*, P<0.05; **, P<0.01)

[4] = test system: MX-1W tumor; assay: Growth of tumors in nude mice, MX-1W xenograft; type: in vivo
Description: 2.4. Growth of Tumors in Nude Mice.

[5] = test system: KB-8-5 (MDR1+); assay: Cell survival assay (SRB), KB-8-5 (MDR1+); settings: for IC50: Homo sapiens; for RR, relative resistance: IC50 KB-8-5 / IC50 KB-3-1, Table 3
[6] = test system: KB-V1 (MDR1++); assay: Cell survival assay (SRB), KB-V1 (MDR1++); settings: for IC50: Homo sapiens; for RR, relative resistance: IC50 KB-V1 / IC50 KB-3-1, Table 3
[7] = test system: KB-8-5 (MDR1+)
[8] = test system: KB-V1 (MDR1++)
[9] = test system: KB-PTX-15+099; assay: Cell survival assay, KB-PTX-15+099 (paclitaxel-resistant, non-MDR); type: cell-based, human; settings: for IC50: KB-PTX-15+099, Table 6, read-out: KB-PTX-15+099 IC50; for Average Relative Resistance (RR): IC50 KB-PTX-15+099 / IC50 KB-3-1, less than 1 = increased sensitivity
[10] = test system: KB-HTI-4.0; assay: Cell survival assay, KB-3-1 line made resistant to Example 129 (KB-HTI-4.0); type: cell-based, human; settings: for IC50: KB-3-1 line made resistant to Example 129, Table 8, read-out: KB-HTI-4.0 IC50; for (RR) relative resistance vs. parental cells: KB-HTI-4.0 vs KB-3-1
Description: as §1, §2
Cells are selected for resistance to Example 129 to understand the frequency and mechanistic basis of resistance.

[11] = Homo sapiens, KB 3-1, 72 h, amount of drug needed to kill 50% of cells after three days continuous exposure, Table 11, read-out: IC50 in parental cell line KB-3-1
[12] = KB-3-1 cells (paclitaxel-sensitive parent), read-out: In vitro IC50 (nM) KB-3-1

## COc1ccc(C(C#N)(CCCCCN2CCc3cc(OC)c(OC)cc3C2)Sc2ccc(C)cc2)cc1OC (stereo not drawn)
[1]; KB-3-1, KB-85, KB-V1 (Table 4)
  effect on cell growth when given alone: # has no inhibitory effect on cell growth when given alone. Data are the mean of two experiments.
[1]; MX-1W, DLD-1, HCT-15 (Table 2)
  effect on cell growth when given alone: # Five micromolar 7-(6,7-dimethoxy-3,4-dihydro-1H-isoquinolin-2-yl)-2(3,4-dimethoxy-phenyl)-2-p-tolysulfanyl-heptanenitrile has no inhibitory effect on cell growth when given alone.

## CN[C@H](C(=O)N[C@H](C(=O)N(C)[C@H](/C=C(\C)C(=O)O)C(C)C)C(C)(C)C)C(C)(C)c1cccc(C)c1 [Example 8, N,β,β,3-Tetramethyl-L-phenylalanyl-N^1-[(1S,2E)-3-carboxy-1-isopropyl-2-butenyl]-N^1,3-dimethyl-L-valinamide]
[2]; [11]
  IC50: 0.3 nM
[2]; Homo sapiens, KB 3-1, KB-3-1 cells (paclitaxel-sensitive parent), read-out: In vitro IC50 (nM) KB-3-1
  IC50: 0.274 nM
[3]
  Activity in nude mice animal model (% T/C @ MTD on days 11-15) LOX: 2%
[4]; mouse, in vivo
  effect on growth of MX-1W (paclitaxel-resistant) tumor: inhibited the growth
[4]; staged MX-1W xenograft, at MTD, days 11-15
  Activity in nude mice animal model (% T/C @ MTD on days 11-15) MX-1W: 9%
[5]
  Ratio KB85/KB: 2.6
[5]; MDR1, read-out: In vitro IC50 (nM) KB85
  IC50: 0.699 nM
[6]
  Ratio KBV1/KB: 68.5
[6]; read-out: In vitro IC50 (nM) KBV1
  IC50: 18.7 nM

## CCOC(=O)/C(C)=C/[C@H](C(C)C)N(C)C(=O)[C@@H](NC(=O)[C@H](NC)C(C)(C)c1ccc(C)c(C)c1)C(C)(C)C [Example 13b, N,β,β-3,4-pentamethyl-D-phenylalanyl-N^1-[(1S,2E)4-ethoxy-1-isopropyl-3-methyl4-oxo-2-butenyl]-N^1,3-dimethyl-L-valinamide]
[2]; [12]
  IC50: 295 nM
[7]
  IC50: 1410 nM
[8]
  IC50: ≥ 3000 nM
[5]
  Ratio KB85/KB: 4.8
[6]
  Ratio KBV1/KB: 10.2

## CC(=O)O[C@@]12CO[C@@H]1C[C@H](O)[C@@]1(C)C(=O)[C@H](O)C3=C(C)[C@@H](OC(=O)[C@H](O)[C@@H](NC(=O)OC(C)(C)C)c4ccccc4)C[C@@](O)([C@@H](OC(=O)c4ccccc4)[C@H]21)C3(C)C [docetaxel, reference compound]
[2]; [11]
  IC50: 0.6 nM
[2]; Homo sapiens, KB-3-1, Table 6, read-out: KB-3-1 IC50
  IC50: 0.594 ± 0.098 nM
[2]; Homo sapiens, KB-3-1 parental, Table 3, read-out: KB-3-1 IC50, nM (N)
  IC50: 0.55 ± 0.45 nM
[2]; Homo sapiens, KB-3-1 parental, Table 8, read-out: KB-3-1 IC50
  IC50: 0.44 ± 0.2 nM
[9]; Homo sapiens
  IC50: 4.49 ± 1.91 nM
[9]
  Average Relative Resistance (RR): (7.6)
[9]; vs KB-3-1
  resistance of KB-PTX-15+099 cells: 7.6 fold
[10]; Homo sapiens
  IC50: 1.25 ± 0.76 nM
[10]
  (RR) relative resistance vs. parental cells: (3)
[5]; MDR1, read-out: KB-8-5 (MDR1+) IC50, nM (N)
  IC50: 9.7 ± 6.6 nM
[5]
  RR, relative resistance: 18
[5]; KB-8-5 (KB-85) vs KB-3-1, in vitro
  resistance of KB-8-5 cells: 18 fold
[6]; read-out: KB-V1 (MDR1++) IC50, nM (N)
  IC50: 368 ± 257 nM
[6]
  RR, relative resistance: 669

## CC[C@H](C)[C@@H]([C@@H](CC(=O)N1CCC[C@H]1[C@H](OC)[C@@H](C)C(=O)N[C@@H](Cc1ccccc1)c1nccs1)OC)N(C)C(=O)[C@@H](NC(=O)[C@H](C(C)C)N(C)C)C(C)C [dolastatin-10]
[2]; KB-3-1, Table 6, read-out: KB-3-1 IC50
  IC50: 0.041 ± 0.01 nM
[2]; KB-3-1 parental, Table 8, read-out: KB-3-1 IC50
  IC50: 0.03 ± 0.02 nM
[9]
  Average Relative Resistance (RR): (0.30)
  IC50: 0.012 ± 0.004 nM
[9]; vs KB-3-1
  increased sensitivity of KB-PTX-15+099 cells: 3.4 fold
[10]
  IC50: 0.83 ± 0.33 nM
  (RR) relative resistance vs. parental cells: (28)
[5]
  RR, relative resistance: 7.1
[6]
  RR, relative resistance: 573

## (2E,4S)4-[{(2R)-2-cyclohexyl-2-[(N,β,1-trimethyl-L-phenylalanyl)amino]ethanoyl}(methyl)amino]-2,5-dimethylhex-2-enoic Acid Trifluoroacetic Acid [Example 98]
[2]; [12]
  IC50: 133 nM
[7]
  IC50: 186 nM
[8]
  IC50: 2940 nM

## (2E,4S)-2,5-dimethyl4-(methyl{(2S)-2-[(N,β,1-trimethyl-L-phenylalanyl)amino]butanoyl}amino)hex-2-enoic Acid Trifluoroacetic Acid [Example 99]
[2]; [12]
  IC50: 60 nM
[7]
  IC50: 87 nM
[8]
  IC50: 1320 nM

## (E,4S)-4-[((2S)-3,3-dimethyl-2-{[(2S)-3-methyl-2-(methylamino)-3-(1-methyl-1H-ethyl-1H-indol-3-yl)butanoyl]amino}butanoyl)amino]-2,5-dimethyl-2-hexenoic Acid [Example 132]
[2]; [12]
  IC50: 0.51 nM
[8]
  IC50: 890 nM

## N,β,β-trimethyl-L-phenylalanyl-N^1-{(1S,2E)-4-[[(1S,2E)-3-carboxy-1-isopropylbut-2-enyl](methyl)amino]-1-isopropyl-3-methyl-4-oxobut-2-enyl-N^1,3-dimethyl-L-valinamide [Example 114]
[2]; [12]
  IC50: 55 nM
[7]
  IC50: 192 nM
[8]
  IC50: > 3000 nM
[5]
  Ratio KB85/KB: 3.5
